# Laboratory results taken from patent US8680159B2, “Bradykinin 1 receptor modulating compounds” (Gruenenthal GmbH, priority 2010, dated 2014).
# Target: T1, B1R receptor of the rat (CHO K1 cells stably transfected with the B1R gene of the rat) (Rattus norvegicus, UniProt P97583)
# T1 construct: expressed in transfected cells; host or cells: CHO K1 cells (Chinese hamster ovary), stably transfected
# T1 sequence (P97583 1-337): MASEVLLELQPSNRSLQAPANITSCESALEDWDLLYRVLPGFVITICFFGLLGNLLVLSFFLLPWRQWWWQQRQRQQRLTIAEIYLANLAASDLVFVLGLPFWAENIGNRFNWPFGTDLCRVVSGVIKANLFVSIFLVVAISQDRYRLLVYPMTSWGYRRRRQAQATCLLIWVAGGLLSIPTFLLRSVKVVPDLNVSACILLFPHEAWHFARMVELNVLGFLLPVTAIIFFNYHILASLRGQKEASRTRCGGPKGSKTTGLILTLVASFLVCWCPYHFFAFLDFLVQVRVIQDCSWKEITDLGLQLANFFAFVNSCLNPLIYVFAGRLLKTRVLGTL
# Assay: Functional study on the bradykinin receptor 1 (B1R), Ca2+ fluorescence (Fluo-4) FLIPR/Novostar assay, rB1R cells
# Assay type: cell-based
# Conditions: CHO-K1, 10 μM, read-out: % Inhibition (r-B1R) at 10 μM
# Procedure, shortened: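 Test compounds (10 μM) were added first and the Ca2+ rise was scored as % activation against Lys-Des-Arg9-bradykinin (≥50 nM, human) or Des-Arg9-bradykinin (≥1 μM, rat). After 6-20 min, the matching agonist was given at its EC80, and % inhibition relative to maximal achievable inhibition was calculated.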
row,Structure (SMILES),inhibition at 10 µM [%]
1,"CN(C(=O)c1ccc2c(c1)C(NC(=O)Nc1cccc(Cl)c1Cl)CCC2)C1CCN(c2ccncc2)CC1 (centres unmarked) [CC_H-258, 8-[[(2,3-Dichloro-phenyl)-carbamoyl]amino]-N-methyl-N-(1-pyridin-4-yl-piperidin-4-yl)-5,6,7,8-tetrahydro-naphthalene-2-carboxylic acid amide]",106
2,"CN(C(=O)c1ccc2c(c1)C(NC(=O)Nc1cc(Cl)ccc1Cl)CCC2)C1CCN(c2ccncc2)CC1 (centres unmarked) [CC_H-259, 8-[[(2,5-Dichloro-phenyl)-carbamoyl]amino]-N-methyl-N-(1-pyridin-4-yl-piperidin-4-yl)-5,6,7,8-tetrahydro-naphthalene-2-carboxylic acid amide]",100
3,"CN(C(=O)c1ccc2c(c1)C(NC(=O)Nc1cc(Cl)cc(Cl)c1)CCC2)C1CCN(c2ccncc2)CC1 (centres unmarked) [CC_H-260, 8-[[(3,5-Dichloro-phenyl)-carbamoyl]amino]-N-methyl-N-(1-pyridin-4-yl-piperidin-4-yl)-5,6,7,8-tetrahydro-naphthalene-2-carboxylic acid amide]",61
4,"CN(C(=O)c1ccc2c(c1)C(NC(=O)Nc1cc(C(F)(F)F)ccc1Cl)CCC2)C1CCN(c2ccncc2)CC1 (centres unmarked) [CC_H-261, 8-[[[2-Chloro-5-(trifluoromethyl)-phenyl]-carbamoyl]amino]-N-methyl-N-(1-pyridin-4-yl-piperidin-4-yl)-5,6,7,8-tetrahydro-naphthalene-2-carboxylic acid amide]",103
5,"CN(C(=O)c1ccc2c(c1)C(NC(=O)Nc1ccc(Cl)cc1Cl)CCC2)C1CCN(c2ccncc2)CC1 (centres unmarked) [CC_H-262, 8-[[(2,4-Dichlorophenyl)-carbamoyl]amino]-N-methyl-N-(1-pyridin-4-yl-piperidin-4-yl)-5,6,7,8-tetrahydro-naphthalene-2-carboxylic acid amide]",82
6,"CN(C(=O)c1ccc2c(c1)C(NC(=O)Nc1ccc(F)c(Cl)c1)CCC2)C1CCN(c2ccncc2)CC1 (centres unmarked) [CC_H-265, 8-[[(3-Chloro-4-fluoro-phenyl)-carbamoyl]amino]-N-methyl-N-(1-pyridin-4-yl-piperidin-4-yl)-5,6,7,8-tetrahydro-naphthalene-2-carboxylic acid amide]",105
7,"Cc1ccc(NC(=O)NC2CCCc3ccc(C(=O)N(C)C4CCN(c5ccncc5)CC4)cc32)c(C)c1 (centres unmarked) [CC_H-266, 8-[[(2,4-Dimethyl-phenyl)-carbamoyl]amino]-N-methyl-N-(1-pyridin-4-yl-piperidin-4-yl)-5,6,7,8-tetrahydro-naphthalene-2-carboxylic acid amide]",63
8,"CN(C(=O)NC1CCCc2ccc(C(=O)N(C)C3CCN(c4ccncc4)CC3)cc21)c1ccccc1Cl (centres unmarked) [CC_H-268, 8-[[(2-Chlorophenyl)-methyl-carbamoyl]amino]-N-methyl-N-(1-pyridin-4-yl-piperidin-4-yl)-5,6,7,8-tetrahydro-naphthalene-2-carboxylic acid amide]",110
9,"CN(C(=O)NC1CCCc2ccc(C(=O)N(C)C3CCN(c4ccncc4)CC3)cc21)c1ccc(Cl)cc1Cl (centres unmarked) [CC_H-269, 8-[[(2,4-Dichlorophenyl)-methyl-carbamoyl]amino]-N-methyl-N-(1-pyridin-4-yl-piperidin-4-yl)-5,6,7,8-tetrahydro-naphthalene-2-carboxylic acid amide]",109
10,"CN(C(=O)c1ccc2c(c1)C(NS(=O)(=O)C1CCCCC1)CCC2)C1CCN(c2ccncc2)CC1 (centres unmarked) [CC_H-270, 8-[(Cyclohexylsulfonyl)amino]-N-methyl-N-(1-pyridin-4-yl-piperidin-4-yl)-5,6,7,8-tetrahydro-naphthalene-2-carboxylic acid amide]",110
11,"CC(C)CC(=O)NC1CCCc2ccc(C(=O)N(C)C3CCN(c4ccncc4)CC3)cc21 (centres unmarked) [CC_H-271, N-Methyl-8-(3-methyl-butanoylamino)-N-(1-pyridin-4-yl-piperidin-4-yl)-5,6,7,8-tetrahydro-naphthalene-2-carboxylic acid amide]",109
12,"CN(C(=O)c1ccc2c(c1)C(NC(=O)c1cc(C(F)(F)F)ccc1Cl)CCO2)C1CCN(c2ccncc2)CC1 (centres unmarked) [CC_H-272, 4-[[2-Chloro-5-(trifluoromethyl)-benzoyl]amino]-N-methyl-N-(1-pyridin-4-yl-piperidin-4-yl)-3,4-dihydro-2H-chromene-6-carboxylic acid amide]",112
13,"Cc1ccc(F)c(C(=O)NC2CCOc3ccc(C(=O)N(C)C4CCN(c5ccncc5)CC4)cc32)c1Cl (centres unmarked) [CC_H-273, 4-[(2-Chloro-6-fluoro-3-methyl-benzoyl)amino]-N-methyl-N-(1-pyridin-4-yl-piperidin-4-yl)-3,4-dihydro-2H-chromene-6-carboxylic acid amide]",112
14,"CN(C(=O)c1ccc2c(c1)C(NC(=O)C1CC1)CCO2)C1CCN(c2ccncc2)CC1 (centres unmarked) [CC_H-274, 4-(Cyclopropanecarbonylamino)-N-methyl-N-(1-pyridin-4-yl-piperidin-4-yl)-3,4-dihydro-2H-chromene-6-carboxylic acid amide]",91
15,"CN(C(=O)c1ccc2c(c1)C(NC(=O)CC(C)(C)C)CCO2)C1CCN(c2ccncc2)CC1 (centres unmarked) [CC_H-275, 4-(3,3-Dimethyl-butanoylamino)-N-methyl-N-(1-pyridin-4-yl-piperidin-4-yl)-3,4-dihydro-2H-chromene-6-carboxylic acid amide]",111
16,"COCC(=O)NC1CCOc2ccc(C(=O)N(C)C3CCN(c4ccncc4)CC3)cc21 (centres unmarked) [CC_H-276, 4-[(2-Methoxy-acetyl]amino]-N-methyl-N-(1-pyridin-4-yl-piperidin-4-yl)-3,4-dihydro-2H-chromene-6-carboxylic acid amide]",51
17,"CC(=O)NC1CCOc2ccc(C(=O)N(C)C3CCN(c4ccncc4)CC3)cc21 (centres unmarked) [CC_H-277, 4-Acetylamino-N-methyl-N-(1-pyridin-4-yl-piperidin-4-yl)-3,4-dihydro-2H-chromene-6-carboxylic acid amide]",100
18,"Cc1cccc(Cl)c1S(=O)(=O)NC1CCOc2ccc(C(=O)N(C)C3CCN(c4ccncc4)CC3)cc21 (centres unmarked) [CC_H-278, 4-[[(2-Chloro-6-methyl-phenyl)sulfonyl]amino]-N-methyl-N-(1-pyridin-4-yl-piperidin-4-yl)-3,4-dihydro-2H-chromene-6-carboxylic acid amide]",103
19,"CN(C(=O)c1ccc2c(c1)C(NC(=O)c1cccc(C(F)(F)F)c1Cl)CCO2)C1CCN(c2ccncc2)CC1 (centres unmarked) [CC_H-279, 4-[[2-Chloro-3-(trifluoromethyl)-benzoyl]amino]-N-methyl-N-(1-pyridin-4-yl-piperidin-4-yl)-3,4-dihydro-2H-chromene-6-carboxylic acid amide]",111
20,"CN(C(=O)c1ccc2c(c1)C(NC(=O)Nc1ccccc1Cl)CCO2)C1CCN(c2ccncc2)CC1 (centres unmarked) [CC_H-280, 4-[[(2-Chlorophenyl)-carbamoyl]amino]-N-methyl-N-(1-pyridin-4-yl-piperidin-4-yl)-3,4-dihydro-2H-chromene-6-carboxylic acid amide]",91
21,"CN(C(=O)c1ccc2c(c1)C(NC(=O)Nc1cccc(Cl)c1)CCO2)C1CCN(c2ccncc2)CC1 (centres unmarked) [CC_H-281, 4-[[(3-Chlorophenyl)-carbamoyl]amino]-N-methyl-N-(1-pyridin-4-yl-piperidin-4-yl)-3,4-dihydro-2H-chromene-6-carboxylic acid amide]",99
22,"CN(C(=O)c1ccc2c(c1)C(NC(=O)Nc1cccc(Cl)c1Cl)CCO2)C1CCN(c2ccncc2)CC1 (centres unmarked) [CC_H-282, 4-[[(2,3-Dichloro-phenyl)-carbamoyl]amino]-N-methyl-N-(1-pyridin-4-yl-piperidin-4-yl)-3,4-dihydro-2H-chromene-6-carboxylic acid amide]",102
23,"CN(C(=O)c1ccc2c(c1)C(NC(=O)Nc1cc(Cl)ccc1Cl)CCO2)C1CCN(c2ccncc2)CC1 (centres unmarked) [CC_H-283, 4-[[(2,5-Dichloro-phenyl)-carbamoyl]amino]-N-methyl-N-(1-pyridin-4-yl-piperidin-4-yl)-3,4-dihydro-2H-chromene-6-carboxylic acid amide]",106
24,"CN(C(=O)c1ccc2c(c1)C(NC(=O)Nc1cc(C(F)(F)F)ccc1Cl)CCO2)C1CCN(c2ccncc2)CC1 (centres unmarked) [CC_H-285, 4-[[[2-Chloro-5-(trifluoromethyl)-phenyl]-carbamoyl]amino]-N-methyl-N-(1-pyridin-4-yl-piperidin-4-yl)-3,4-dihydro-2H-chromene-6-carboxylic acid amide]",75
25,"CN(C(=O)c1ccc2c(c1)C(NC(=O)Nc1ccc(Cl)cc1Cl)CCO2)C1CCN(c2ccncc2)CC1 (centres unmarked) [CC_H-286, 4-[[(2,4-Dichlorophenyl)-carbamoyl]amino]-N-methyl-N-(1-pyridin-4-yl-piperidin-4-yl)-3,4-dihydro-2H-chromene-6-carboxylic acid amide]",87
26,"Cc1ccc(NC(=O)NC2CCOc3ccc(C(=O)N(C)C4CCN(c5ccncc5)CC4)cc32)cc1Cl (centres unmarked) [CC_H-288, 4-[[(3-Chloro-4-methyl-phenyl)-carbamoyl]amino]-N-methyl-N-(1-pyridin-4-yl-piperidin-4-yl)-3,4-dihydro-2H-chromene-6-carboxylic acid amide]",69
